Experimental data: publication PMC7824383, “Organic Solution Advanced Spray-Dried Microparticulate/Nanoparticulate Dry Powders of Lactomorphin for Respiratory Delivery: Physicochemical Characterization, In Vitro Aerosol Dispersion, and Cellular Studies” (Pharmaceutics, 2020)
Square brackets hold non-standard residues; d marks the D form. Peptide text beside a SMILES is read from it. * marks the point of attachment. X1 = OC[C@H]1O[C@@H](O[C@H]2[C@H](O)[C@@H](O)[C@H](*)O[C@@H]2CO)[C@H](O)[C@@H](O)[C@H]1O

How the values were obtained:
[1] = Partition coefficient (LogP) by shake-flask, 1-octanol/water; format: physicochemical; details: shake-flask 1-octanol/water (equal volumes, water saturated with octanol), 1 mg/mL, pH 8.5, shaken 24 h then 24 h standing, HPLC-UV 280 nm, mean ± SD, n = 3
Protocol: Lipophilicity is a critical physicochemical property that affects ADMET (absorption, distribution, metabolism, excretion, and toxicity). SFM is the most known lipophilicity measurement method, which is based on liquid-liquid extraction using the n-octanol/water system. The partition coefficient of Lactomorphin was measured at the room, and physiological temperatures via SFM using conditions similar to previously reported. The Lactomorphin powder was dispensed into two individual glass vials containing equal volumes of 1-octanol and water to achieve a 1 mg/mL concentration. The water solution in each vial was saturated with octanol before analysis. The pH was measured and fixed to 8.5 value to assure the predominant presence of the unionized form of Lactomorphin. The pH stability in both vials was regularly checked throughout the experiment. The first vial was shaken for 24 h at room temperature. The other one was shaken for 24 h while kept in an incubator at 37 °C. After 24 h, the vials shaking was stopped. […] A sample from each layer was carefully withdrawn and analyzed by the analytical HPLC to measure the concentration of Lactomorphin in each layer then calculate the Partition coefficient (P) and logP using the following equations:(4) P =[neutral solute]oct/[neutral solute]Aq (5) LogP=log10[neutral solute]oct/[neutral solute]Aq […]

[2] = test system: Normal Human Astrocytes (NHA); assay: Resazurin cell viability assay, NHA; details: NHA cells, 48 h exposure, 0.1, 1, 10 and 1000 µg/mL, resazurin fluorescence; p > 0.05
[3] = test system: RPMI 2650 human nasal epithelial cells; assay: Resazurin cell viability assay, RPMI 2650; details: RPMI2650 cells, 48 h exposure, 0.1, 1, 10 and 1000 µg/mL, resazurin fluorescence 544/590 nm; p > 0.05

SMILES: CC(C)C[C@H](NC(=O)[C@H](Cc1ccccc1)NC(=O)CNC(=O)[C@H](NC(=O)[C@@H](N)Cc1ccc(O)cc1)[C@H](C)O)C(=O)N[C@@H](CO[C@@H]1O[C@H](CO)[C@@H](O[C@@H]2O[C@H](CO)[C@H](O)[C@H](O)[C@H]2O)[C@H](O)[C@H]1O)C(N)=O [Lactomorphin, H2N-Tyr-D-Thr- Gly-Phe-Leu-Ser-(O-β-Lactoside)-CONH2] (H-Y[dT]GFLS(X1)-NH2)
- Experimental LogP at Room Temperature (25 °C) ([1]; 25 °C): −2.40 ± 0.00
- Experimental LogP at Physiological Temperature (37 °C) ([1]; 37 °C): −2.33 ± 0.02
- relative cell viability% vs control [2]: no statistically significant difference
- relative cell viability% vs control [3]: no statistically significant difference
